Experiments:
[1] = target: Recombinant human Aβ1-42 peptide (Homo sapiens (Human), UniProt P05067); assay: Thioflavin T test, antiaggregation activity against beta-amyloid; type: biochemical; settings: 10 μM test compound, 1.5 μM Aβ1-42; read-out: inh. Aβ aggr. % inh
Protocol: The thioflavin T test [Levine III] was used for the determinations. Recombinant human Aβ1-42 peptide (HFIP pretreated, Merck Millipore, Darmstadt, Germany) was dissolved in DMSO to form a 75 μM stock solution. The solution was further diluted in HEPES buffer (150 mM HEPES, pH 7.4, 150 mM NaCl) to a concentration of 7.5 μM. Then, the Aβ1-42 solution was added to the test compounds (black 96-well plates were used) and diluted with thioflavin T solution (10 μM final concentration). The final mixture contained 1.5 μM Aβ1-42, 10 μM test compound, and 3% of DMSO. Fluorescence was measured every 300 s (excitation wavelength was 440 nm, emission wavelength was 490 nm) with continuous mixing between measurements. A multifunction microplate reader (Synergy H4; BioTek Instruments, Inc., Winooski, VT, USA) was used to measure the fluorescence. Fluorescence started increasing after approximately 4 hours, plateaued after 20 hours and remained virtually unchanged for the next 28 hours of incubation. The plateau-phase fluorescence intensities (in the presence and absence of test compounds) were averaged and the mean fluorescence values for the respective wells at t=0 h were subtracted from them. […] IC50 values were calculated using non-linear regression (GraphPad Prism 5 [GraphPad Software, San Diego, CA, USA 5.00]) for the percentage of aggregation inhibition against the inhibitor concentration used.

[2] = target: mGAT1 (Mus musculus (Mouse), UniProt P31648); assay: [3H]GABA uptake inhibition, mGAT1 in HEK293 cells; type: cell-based; settings: for percentage of [3H]GABA reuptake retained, mGAT1: inhibitor at 100 μM, remaining reuptake
Protocol: (§1) Exemplary compounds according to the invention were screened at the Ludwig-Maximilian University of Munich to determine the inhibitory ability towards four mouse GAT transporters (mGAT1-mGAT4). […] The biological material was stably transfected human embryonic kidney HEK293 cells, expressing genes to the appropriate transporters. The generated radioactivity was measured with a liquid scintillation counter. […] These determinations were made according to the procedure described in detail in A. Kragler, G. Höfner, K. T. Wanner, Novel parent structures for inhibitors of the murine GABA transporters mGAT3 and mGAT4, Eur. J. Pharmacol. 519 (2005) 43-47.

[3] = target: human plasma butyrylcholinesterase (hBuChE) (Homo sapiens (Human), UniProt P06276); assay: Ellman's test, inhibition of human plasma butyrylcholinesterase; type: biochemical; settings: for inhibition at 1 µM: 1 μM inhibitor concentration, read-out: hBuChE % inh
human plasma butyrylcholinesterase (hBuChE), sequence (P06276 29-602): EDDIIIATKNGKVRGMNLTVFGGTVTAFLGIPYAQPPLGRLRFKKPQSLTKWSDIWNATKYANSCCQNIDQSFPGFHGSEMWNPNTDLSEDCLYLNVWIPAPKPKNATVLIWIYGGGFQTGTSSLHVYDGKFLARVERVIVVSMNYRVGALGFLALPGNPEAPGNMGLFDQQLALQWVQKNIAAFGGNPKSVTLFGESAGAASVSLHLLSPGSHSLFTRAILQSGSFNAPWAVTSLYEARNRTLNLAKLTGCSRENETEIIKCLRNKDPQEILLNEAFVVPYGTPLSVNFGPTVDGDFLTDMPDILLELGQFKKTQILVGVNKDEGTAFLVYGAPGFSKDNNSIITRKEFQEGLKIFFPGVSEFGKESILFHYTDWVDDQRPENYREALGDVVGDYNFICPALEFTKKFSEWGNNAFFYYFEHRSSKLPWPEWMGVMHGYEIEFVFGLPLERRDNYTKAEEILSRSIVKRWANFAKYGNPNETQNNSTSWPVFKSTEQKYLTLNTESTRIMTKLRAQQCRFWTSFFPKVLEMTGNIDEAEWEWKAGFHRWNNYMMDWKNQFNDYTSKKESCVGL
Protocol: (§2) The spectrophotometric Ellman's test [Ellman et al.] modified for assays in 96-well plates was used to test the activity. Reagents: 5,5′-dithiobis-(2-nitrobenzoic acid) (DTNB), eqBuChE and butyrylthiocholine iodide (BTC) were purchased from Sigma-Aldrich (Steinheim, Germany). hBuChE was from Vivonics (Bedford, MA, USA). The enzymes were prepared by dissolving in demineralized water to a concentration of 0.384 U/ml. Stock solutions of test compounds were prepared by dissolving in DMSO to a concentration of 0.0034 M. They were then diluted with water to obtain the appropriate concentrations in the wells. In the first step of the test, 25 μl of test compound (or DMSO/water mixture at the appropriate ratio for blank samples) was incubated in 0.1 M phosphate buffer (200 μl, pH=8.0) with DTNB (20 μl; 0.0025M) and with the appropriate enzyme (20 μl; eqBuChE or hBuChE) at 25° C. (animal enzyme) or 36° C. (human enzyme). After a 5 minutes incubation period, 20 μl of BTC solution (0.00375 M) was added. After another 5 minutes, the changes in absorbance of the solutions were measured at 412 nm using a multifunctional microplate reader (EnSpire Multimode; PerkinElmer; Waltham, MA, USA). All compounds were tested at a screening concentration of 10 μM (eqBuChE) or 1 μM (hBuChE). The percentage of enzyme inhibition was calculated from the equation 100-(S/B)×100, where S and B were the enzymatic activity in the test sample well and in the well without sample, respectively. […] All reactions were performed in triplicate. IC50 values were calculated using non-linear regression (GraphPad Prism 5 [GraphPad Software, San Diego, CA, USA 5.00]) for the percentage of enzyme inhibition against the inhibitor concentration used. Tacrine and donepezil were used as reference compounds.

[4] = target: mGAT3 (Mus musculus (Mouse), UniProt P31649); assay: [3H]GABA uptake inhibition, mGAT3 in HEK293 cells; type: cell-based; settings: for percentage of [3H]GABA reuptake retained, mGAT3: inhibitor at 100 μM, remaining reuptake
mGAT3, sequence (P31649 whole entry): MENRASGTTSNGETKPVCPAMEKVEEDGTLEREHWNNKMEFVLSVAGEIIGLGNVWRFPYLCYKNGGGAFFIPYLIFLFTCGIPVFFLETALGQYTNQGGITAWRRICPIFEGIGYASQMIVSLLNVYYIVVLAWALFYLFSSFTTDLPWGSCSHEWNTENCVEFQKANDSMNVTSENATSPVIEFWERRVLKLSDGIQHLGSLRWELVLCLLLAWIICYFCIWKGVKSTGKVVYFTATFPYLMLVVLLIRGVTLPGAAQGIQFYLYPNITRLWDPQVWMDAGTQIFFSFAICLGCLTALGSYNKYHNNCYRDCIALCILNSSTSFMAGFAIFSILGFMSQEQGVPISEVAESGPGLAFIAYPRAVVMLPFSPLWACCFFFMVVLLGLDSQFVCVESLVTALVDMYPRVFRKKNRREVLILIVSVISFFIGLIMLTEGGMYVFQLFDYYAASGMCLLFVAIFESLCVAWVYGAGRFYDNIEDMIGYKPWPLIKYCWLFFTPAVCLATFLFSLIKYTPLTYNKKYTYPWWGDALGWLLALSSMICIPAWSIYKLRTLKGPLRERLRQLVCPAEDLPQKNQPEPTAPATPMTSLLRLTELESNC
Protocol: as §1

[5] = target: mGAT4 (Mus musculus (Mouse), UniProt P31650); assay: [3H]GABA uptake inhibition, mGAT4 in HEK293 cells; type: cell-based; settings: for pIC50 (+/−SEM) mGAT4 / IC50: GABA reuptake; for percentage of [3H]GABA reuptake retained, mGAT4: inhibitor at 100 μM, remaining reuptake; for IC50: read-out: pIC50 (+/−SEM) mGAT4 (converted)
mGAT4, sequence (P31650 whole entry): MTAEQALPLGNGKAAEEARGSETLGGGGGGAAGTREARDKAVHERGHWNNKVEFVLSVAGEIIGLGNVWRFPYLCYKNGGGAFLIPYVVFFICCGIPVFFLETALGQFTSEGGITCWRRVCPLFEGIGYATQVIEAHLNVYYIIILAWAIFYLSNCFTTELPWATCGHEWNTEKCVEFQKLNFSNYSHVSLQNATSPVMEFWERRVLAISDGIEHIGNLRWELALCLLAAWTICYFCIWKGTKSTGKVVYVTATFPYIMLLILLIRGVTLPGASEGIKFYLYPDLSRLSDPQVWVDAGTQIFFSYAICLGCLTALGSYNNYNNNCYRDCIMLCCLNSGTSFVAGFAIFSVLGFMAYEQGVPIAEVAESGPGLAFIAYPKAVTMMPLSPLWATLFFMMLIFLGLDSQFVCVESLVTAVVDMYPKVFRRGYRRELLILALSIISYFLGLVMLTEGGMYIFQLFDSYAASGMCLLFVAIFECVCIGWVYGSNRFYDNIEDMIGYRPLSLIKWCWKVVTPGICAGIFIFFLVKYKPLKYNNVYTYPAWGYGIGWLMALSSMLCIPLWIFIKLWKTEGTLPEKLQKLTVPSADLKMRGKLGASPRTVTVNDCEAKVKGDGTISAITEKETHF
Protocol: as §1

[6] = target: human recombinant beta-secretase (hBACE1) (Homo sapiens (Human), UniProt P56817); assay: FRET assay, inhibition of human recombinant beta-secretase; type: biochemical; settings: for IC50: read-out: hBACE-1 IC50; for inhibition at 50 µM: 50 μM inhibitor concentration, read-out: hBACE-1 % inh
human recombinant beta-secretase (hBACE1), sequence (P56817 46-501): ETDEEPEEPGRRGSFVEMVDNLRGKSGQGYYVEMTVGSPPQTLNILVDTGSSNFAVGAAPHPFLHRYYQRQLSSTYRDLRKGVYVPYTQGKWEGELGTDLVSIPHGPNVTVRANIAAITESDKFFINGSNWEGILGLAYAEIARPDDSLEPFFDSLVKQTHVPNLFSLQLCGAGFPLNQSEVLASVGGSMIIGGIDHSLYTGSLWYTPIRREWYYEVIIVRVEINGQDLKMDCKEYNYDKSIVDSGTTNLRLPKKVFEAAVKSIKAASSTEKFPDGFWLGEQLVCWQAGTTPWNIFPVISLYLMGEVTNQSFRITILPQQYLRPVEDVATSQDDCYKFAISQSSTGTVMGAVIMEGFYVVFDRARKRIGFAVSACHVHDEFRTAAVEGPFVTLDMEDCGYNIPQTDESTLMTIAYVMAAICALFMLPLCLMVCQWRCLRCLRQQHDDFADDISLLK
Protocol: The FRET assay [Vassar, et al.] was used to test activity using 384-well black plates and a microplate reader (EnSpire Multimode; PerkinElmer; Waltham, MA, USA). The test was purchased from Life Technologies Polska Sp. z o.o. (Warsaw, Poland). […] Stock solutions of test compounds were prepared in DMSO and then further diluted with assay buffer (50 mM sodium acetate; pH 4.5) to the appropriate concentrations in the wells. In the first step of the test, 10 μl of the substrate (Rh-[…] quencher, based on the so-called Swedish APP mutation) was mixed with 10 μl of the test compound (or assay buffer; for blank sample). The enzyme reaction was initiated by adding 10 μl of enzyme (hBACE1, 1 U/ml). The reaction mixture was incubated at 25° C. for 60 minutes, then 10 μL of Stop solution (2.5 M sodium acetate) was added. After stopping the reaction, fluorescence was measured at 576 nm. The percentage of enzyme inhibition was calculated from the formula [1−(S60−S0)/(C60−C0)]×100, where S0 and S60 are the fluorescence of the test sample (containing the enzyme, substrate and test compound) at the start of the reaction and after 60 minutes, respectively, whereas C0 and C60 were analogous fluorescence intensities in the blank samples (containing enzyme, substrate and buffer). All test compounds were tested at a concentration of 50 μM in triplicate. […] A BACE1 IV inhibitor (Calbiochem, Merck; Nottingham, UK) [Stachel et al.] was used as a reference compound. […] IC50 values for all test compounds were calculated using non-linear regression (GraphPad Prism 5 [GraphPad Software, San Diego, CA, USA 5.00]) for the percentage of enzyme inhibition against the inhibitor concentration used.

[7] = target: horse plasma butyrylcholinesterase (eqBuChE) (Equus caballus (Horse), UniProt P81908); assay: Ellman's test, inhibition of horse plasma butyrylcholinesterase; type: biochemical; settings: for inhibition at 10 µM: 10 μM inhibitor concentration, read-out: eqBuChE percent inhibition of enzyme
horse plasma butyrylcholinesterase (eqBuChE), sequence (P81908 whole entry): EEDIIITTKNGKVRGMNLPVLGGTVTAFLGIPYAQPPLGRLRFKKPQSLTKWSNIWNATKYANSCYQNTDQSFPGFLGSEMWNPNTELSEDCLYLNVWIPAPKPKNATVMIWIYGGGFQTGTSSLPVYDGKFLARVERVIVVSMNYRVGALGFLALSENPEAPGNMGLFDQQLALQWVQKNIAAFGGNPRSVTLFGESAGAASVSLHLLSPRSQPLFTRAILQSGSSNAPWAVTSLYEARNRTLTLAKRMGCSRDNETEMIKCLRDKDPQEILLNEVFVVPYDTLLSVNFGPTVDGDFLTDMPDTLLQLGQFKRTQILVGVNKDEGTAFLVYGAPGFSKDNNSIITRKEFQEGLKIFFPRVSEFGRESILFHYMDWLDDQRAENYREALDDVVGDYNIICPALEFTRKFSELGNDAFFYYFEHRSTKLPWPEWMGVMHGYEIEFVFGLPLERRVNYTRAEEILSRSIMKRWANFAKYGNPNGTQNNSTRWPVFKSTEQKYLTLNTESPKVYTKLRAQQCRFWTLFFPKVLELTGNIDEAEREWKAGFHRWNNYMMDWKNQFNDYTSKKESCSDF
Protocol: as §2

[8] = target: mGAT2 (Mus musculus (Mouse), UniProt P31651); assay: [3H]GABA uptake inhibition, mGAT2 in HEK293 cells; type: cell-based; settings: for pIC50 (+/−SEM) mGAT2 / IC50: GABA reuptake; for IC50: read-out: pIC50 (+/−SEM) mGAT2 (converted); for percentage of [3H]GABA reuptake retained, mGAT2: inhibitor at 100 μM, remaining reuptake
mGAT2, sequence (P31651 whole entry): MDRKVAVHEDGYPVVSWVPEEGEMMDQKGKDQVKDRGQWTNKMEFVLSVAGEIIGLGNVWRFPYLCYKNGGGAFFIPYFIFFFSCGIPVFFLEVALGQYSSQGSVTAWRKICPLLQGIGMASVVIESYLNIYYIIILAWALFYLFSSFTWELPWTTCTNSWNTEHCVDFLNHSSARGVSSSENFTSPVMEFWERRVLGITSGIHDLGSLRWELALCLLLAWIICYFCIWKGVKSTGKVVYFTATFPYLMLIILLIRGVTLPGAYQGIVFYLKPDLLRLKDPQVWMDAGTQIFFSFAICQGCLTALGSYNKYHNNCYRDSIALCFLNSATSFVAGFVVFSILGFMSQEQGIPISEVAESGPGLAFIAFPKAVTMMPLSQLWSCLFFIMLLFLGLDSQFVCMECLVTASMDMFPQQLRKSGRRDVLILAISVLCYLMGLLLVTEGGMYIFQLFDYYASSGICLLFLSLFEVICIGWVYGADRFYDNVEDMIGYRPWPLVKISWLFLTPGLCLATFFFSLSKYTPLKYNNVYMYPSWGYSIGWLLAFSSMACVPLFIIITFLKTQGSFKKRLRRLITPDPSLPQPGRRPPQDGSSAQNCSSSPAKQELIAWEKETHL
Protocol: as §1

Recombinant human Aβ1-42 peptide, sequence (P05067 672-713): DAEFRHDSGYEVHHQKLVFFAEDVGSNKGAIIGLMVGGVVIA

SMILES	inhibition at 10 µM [1]	pIC50 (+/−SEM) mGAT1 ([2]; GABA reuptake)	IC50 [3]	pIC50 (+/−SEM) mGAT3 ([4]; GABA reuptake)	pIC50 (+/−SEM) mGAT4 [5]	IC50 [6]	IC50 [7]	pIC50 (+/−SEM) mGAT2 [8]	inhibition at 1 µM [3]	percentage of [3H]GABA reuptake retained, mGAT4 [5]	inhibition at 10 µM [7]	percentage of [3H]GABA reuptake retained, mGAT3 [4]	percentage of [3H]GABA reuptake retained, mGAT1 [2]	IC50 [5]	IC50 [8]	inhibition at 50 µM [6]	percentage of [3H]GABA reuptake retained, mGAT2 [8]	IC50 ([2]; GABA reuptake, read-out: pIC50 (+/−SEM) mGAT1 (converted))	IC50 ([4]; GABA reuptake, read-out: pIC50 (+/−SEM) mGAT3 (converted))
O[C@H](CNCc1ccccc1)[C@H](Cc1ccccc1)NC1c2ccccc2-c2ccccc21 [Compound 1, (2R,3S)-3-((9H-fluoren-9-yl)amino)-1-(benzylamino)-4-phenylbutan-2-ol]	82.5%	4.96	0.196 µM	5.15+/− 0.07	5.11 +/− 0.01	10.1 µM	0.627 µM	5.01 +/− 0.08											
CC(C)(C)c1cccc(CNC[C@@H](O)[C@H](Cc2ccccc2)NC2c3ccccc3-c3ccccc32)c1 [Compound 3, (2R,3S)-3-((9H-fluoren-9-yl)amino)-1-((3-(tert-butyl)benzyl)amino)-4-phenylbutan-2-ol]	90.9%	4.83		5.05 +/− 0.05		6.35 µM		4.58	68%	56%	78.2%								
COc1cccc(CNC[C@H](O)[C@H](Cc2ccccc2)NC2c3ccccc3-c3ccccc32)c1 [Compound 6, (2S,3S)-3-((9H-fluoren-9-yl)amino)-1-((3-methoxybenzyl)amino)-4-phenylbutan-2-ol]	93.3%	5.15			5.15 +/− 0.034	2.25 µM	2.2 µM	4.92 +/− 0.14	67.7%			66%							
COc1ccccc1CNC[C@H](O)[C@H](Cc1ccccc1)NC1c2ccccc2-c2ccccc21 [Compound 7, (2S,3S)-3-((9H-fluoren-9-yl)amino)-1-((2-methoxybenzyl)amino)-4-phenylbutan-2-ol]	86.7%	5.20	0.268 µM		5.21 +/− 0.04	7.23 µM	0.278 µM	4.88 +/− 0.07				65%							
O[C@@H](CNCC1CCCCC1)[C@H](Cc1ccccc1)NC1c2ccccc2-c2ccccc21 [Compound 11, (2S,3S)-3-((9H-fluoren-9-yl)amino)-1-((cyclohexylmethyl)amino)-4-phenylbutan-2-ol]	78.6%			4.94		8.6 µM	0.955 µM	4.97	76.5%	59%			54%						
O=C(CC1c2ccccc2-c2ccccc21)N[C@@H](Cc1ccccc1)[C@@H](O)CNCc1ccccc1 [Compound 17, N-((2S,3S)-4-(benzylamino)-3-hydroxy-1-phenylbutan-2-yl)-2-(9H-fluorene-9-yl)acetamide]	42.5%	4.85		4.93		11.5 µM	1.76 µM		66.4%					7.24 µM	15.8 µM				
CC(C)(C)c1ccc(CNC[C@H](O)[C@H](Cc2ccccc2)NC(=O)CC2c3ccccc3-c3ccccc32)cc1 [Compound 19, N-((2S,3S)-4-((4-(tert-butyl)benzyl)amino)-3-hydroxy-1-phenylbutan-2-yl)-2-(9H-fluoren-9-yl)acetamide]	86.7%	4.90		4.90			3.02 µM		77.1%					15.5 µM		78.3%	114%		
COc1ccccc1CNC[C@H](O)[C@H](Cc1ccccc1)NC(=O)CC1c2ccccc2-c2ccccc21 [Compound 20, 2-(9H-fluorene-9-yl)-N-((2S,3S)-3-hydroxy-4-((2-methoxybenzyl)amino)-1-phenylbutan-2-yl)acetamide]	< 10%						2.2 µM		74.5%					4.07 µM	9.12 µM	71.1%		9.55 µM	8.32 µM
C[C@H](NC[C@@H](O)[C@H](Cc1ccccc1)NC(=O)C1c2ccccc2-c2ccccc21)c1ccccc1 [Compound 22, N-((2S,3R)-3-hydroxy-1-phenyl-4-(((S)-1-phenylethyl)amino)butan-2-yl)-9H-fluorene-9-carboxamide]	< 10%								< 10%	69%	42%	90%	83%			72.6%	97%		
C[C@H](NC[C@@H](O)[C@H](Cc1ccccc1)NC(=O)CC1c2ccccc2-c2ccccc21)c1ccccc1 [Compound 23, 2-(9H-fluoren-9-yl)-N-((2S,3R)-3-hydroxy-1-phenyl-4-(((S)-1-phenylethyl)amino)butan-2-yl)acetamide]	59.4%	4.73	0.558 µM			7.36 µM	8.86 µM			61%		59%			14.5 µM				

Reference: US12492163B2, “9H-fluorene derivatives or their pharmaceutically acceptable salts” (priority 2020, dated 2025)
